Some test systems named below: HCC-2998 colon; NCI-H522 lung; SK-MEL-5 melanoma; TK-10 renal; NCI-H226 lung; SW-620 colon; UACC-62 melanoma; SNB-75 CNS; OVCAR-8 ovarian; CCRF-CEM leukemia.
Common to all, as to assay: NCI tumour cell line growth inhibition, 48 h

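Protocol summary: plate cells (96-well), add compound at 5 concentrations, incubate 48 h, interpolate endpoints linearly. GI50: concentration for 50% inhibition of growth. At the TGI there is no net growth.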 Some results are limits rather than exact numbers.

As to `Nc1ccn(C2OC(CO[P+](=O)OC3C(CO[P+](=O)OC4C(CO[P+](=O)OC5C(CO[P+](=O)OC6C(CO[P+](=O)OC7C(CO[P+](=O)OC8C(CO[P+](=O)OC9C(CO[P+](=O)OC%10C(CO[P+](=O)OC%11C(CO)OC(n%12ccc(N)nc%12=O)C%11(F)F)OC(n%11ccc(N)nc%11=O)C%10(F)F)OC(n%10ccc(N)nc%10=O)C9(F)F)OC(n9ccc(N)nc9=O)C8(F)F)OC(n8ccc(N)nc8=O)C7(F)F)OC(n7ccc(N)nc7=O)C6(F)F)OC(n6ccc(N)nc6=O)C5(F)F)OC(n5ccc(N)nc5=O)C4(F)F)OC(n4ccc(N)nc4=O)C3(F)F)C(O)C2(F)F)c(=O)n1` (centres undefined), the GI50 with HCC-2998 colon was 0.339 µM; in the experiment on NCI-H522 lung it was 0.224 µM; with TK-10 renal, greater than 100 µM; in the experiment on NCI-H226 lung, 18.3 µM; with SW-620 colon it was 0.168 µM. Besides, the TGI in the experiment on HCC-2998 colon, with NCI-H522 lung, in the experiment on SK-MEL-5 melanoma, with TK-10 renal, in the experiment with NCI-H226 lung and with SW-620 colon was greater than 100 µM in each case.
`NC(Cc1cc(Br)c(O)c(Br)c1)C(=O)O` (centres undefined): the TGI in the experiment on UACC-62 melanoma, with NCI-H522 lung, in the experiment with SK-MEL-5 melanoma, in the experiment on SNB-75 CNS, in the experiment on OVCAR-8 ovarian and in the experiment on CCRF-CEM leukemia was greater than 100 µM throughout. The TGI in the experiment with TK-10 renal, with NCI-H226 lung and in the experiment on SW-620 colon was greater than 100 µM in each case.
As for `NC1=NN(c2ccccc2)C(=O)C1C(=O)C(=O)NC1C2CC3CC(C2)CC1C3` (centres undefined), the TGI in the experiment with UACC-62 melanoma, in the experiment with HCC-2998 colon, in the experiment on SK-MEL-5 melanoma, in the experiment on OVCAR-8 ovarian, with CCRF-CEM leukemia and with TK-10 renal was greater than 100 µM each time. Further, the TGI with NCI-H226 lung and in the experiment with SW-620 colon was greater than 100 µM in each case.
Consider `COC(=O)C1C2CC3C(OC(=O)C31)C2I` (centres undefined), for which the TGI with UACC-62 melanoma, in the experiment on HCC-2998 colon, in the experiment on NCI-H522 lung, in the experiment on SK-MEL-5 melanoma, with SNB-75 CNS and with OVCAR-8 ovarian was greater than 100 µM throughout. The figures for the TGI in the experiment on TK-10 renal, with NCI-H226 lung and with SW-620 colon were greater than 10 µM, greater than 100 µM and greater than 100 µM, respectively.
With `CCOC(=O)NC(=O)c1cn(CCCCCCCCCCC(=O)N2CCN(CCn3cc(C(=O)NC(=O)OCC)c(=O)[nH]c3=O)CC2)c(=O)[nH]c1=O`, the TGI in the experiment on UACC-62 melanoma, with HCC-2998 colon, in the experiment with SK-MEL-5 melanoma, in the experiment with SNB-75 CNS, in the experiment with OVCAR-8 ovarian and in the experiment with CCRF-CEM leukemia was greater than 100 µM throughout. Moreover, the TGI in the experiment with TK-10 renal and with SW-620 colon was greater than 100 µM in each case.
Turning to `CC1=C(C)C(=O)c2c(cc3c4ccccc4ccn23)C1=O`, the TGI with UACC-62 melanoma, with NCI-H522 lung, with SK-MEL-5 melanoma, in the experiment with SNB-75 CNS, in the experiment on OVCAR-8 ovarian and in the experiment with TK-10 renal was greater than 100 µM each time. Also, the TGI with NCI-H226 lung and in the experiment on SW-620 colon was greater than 100 µM throughout.
Regarding `CCCCCCCCCCCCCCCCc1c(C(=O)OC)[nH]c(=S)[nH]c1=O`, the TGI in the experiment with UACC-62 melanoma, in the experiment on HCC-2998 colon, with NCI-H522 lung, in the experiment on SK-MEL-5 melanoma, with SNB-75 CNS and with OVCAR-8 ovarian was greater than 50 µM in each case. Further, the TGI in the experiment with CCRF-CEM leukemia, in the experiment on TK-10 renal and with SW-620 colon was greater than 50 µM each time.
Take `Cc1c(NC(=O)CCCl)c(=O)oc2c(C)c3occc(=O)c3cc12`: the TGI with HCC-2998 colon, in the experiment on SK-MEL-5 melanoma, in the experiment with SNB-75 CNS, with OVCAR-8 ovarian, in the experiment on CCRF-CEM leukemia and in the experiment with TK-10 renal was greater than 100 µM each time. For the same compound, the TGI with SW-620 colon is greater than 100 µM.
Regarding `NCC(=O)Nc1ccc(-n2nc(C(F)(F)F)cc2-c2ccc3c(ccc4ccccc43)c2)cc1`, the GI50 in the experiment on NCI-H522 lung was 1.32 µM; with SK-MEL-5 melanoma it was 1.25 µM; with SNB-75 CNS it was 1.26 µM; with OVCAR-8 ovarian it was 0.929 µM; in the experiment on CCRF-CEM leukemia, 0.746 µM; in the experiment with TK-10 renal it was 1.49 µM. The GI50 is 2.15 µM with NCI-H226 lung and 0.835 µM in the experiment on SW-620 colon. Moreover, the TGI was 2.71 µM in the experiment on NCI-H522 lung; 2.56 µM in the experiment with SK-MEL-5 melanoma; 2.79 µM with SNB-75 CNS; 3.15 µM with OVCAR-8 ovarian; 4.16 µM in the experiment on CCRF-CEM leukemia; 2.87 µM with TK-10 renal. The TGI with NCI-H226 lung was determined as 6.35 µM; in the experiment on SW-620 colon it was 2.16 µM.
Take `CC1C(=O)CCC1C(Sc1ccccc1)(Sc1ccccc1)Sc1ccccc1` (centres undefined): the TGI with UACC-62 melanoma is greater than 100 µM; in the experiment on HCC-2998 colon it was greater than 100 µM; in the experiment on NCI-H522 lung, 26.8 µM; in the experiment on SK-MEL-5 melanoma it was 73.5 µM; with SNB-75 CNS, 64.6 µM; in the experiment with OVCAR-8 ovarian, greater than 100 µM. The TGI in the experiment with CCRF-CEM leukemia was 22.4 µM; in the experiment on TK-10 renal, greater than 100 µM; with SW-620 colon it was greater than 100 µM.
In the case of `CCOC(=O)/C(=C/c1cc(OC)ccc1OC)CC(=O)O`, the TGI is greater than 100 µM with UACC-62 melanoma; greater than 31.6 µM in the experiment on HCC-2998 colon; greater than 100 µM with NCI-H522 lung; greater than 100 µM with SK-MEL-5 melanoma; greater than 100 µM in the experiment on SNB-75 CNS; greater than 100 µM in the experiment on OVCAR-8 ovarian. In addition, the TGI with CCRF-CEM leukemia is greater than 31.6 µM; in the experiment on TK-10 renal, greater than 100 µM; with SW-620 colon it was greater than 100 µM.
On to `CC12Oc3ccc4ccccc4c3C1c1c(ccc3ccccc13)O2` (centres undefined), for which the TGI in the experiment on UACC-62 melanoma, in the experiment with NCI-H522 lung, with SK-MEL-5 melanoma, in the experiment with SNB-75 CNS, in the experiment with OVCAR-8 ovarian and in the experiment on CCRF-CEM leukemia was greater than 100 µM each time. Besides, the TGI in the experiment on TK-10 renal, in the experiment with NCI-H226 lung and in the experiment with SW-620 colon was greater than 100 µM throughout.
For `Cn1nc(-c2ccccc2)c(C(=O)/C=C/c2ccccc2)c(N2CCCCC2)c1=O`, the TGI with UACC-62 melanoma, in the experiment with NCI-H522 lung, in the experiment with SK-MEL-5 melanoma, in the experiment with OVCAR-8 ovarian, in the experiment with CCRF-CEM leukemia and in the experiment with TK-10 renal was greater than 100 µM throughout. Further, the TGI in the experiment with SW-620 colon was greater than 100 µM.

The record behind these values is PubChem BioAssay (NCI).
